Source: PMC10603063, “A quantitative method for determination of colistin E2 methanesulphonate in human plasma by ^15N-labeled colistin E2” (Scientific Reports, 2023)
Read-outs that look alike come from different tables or passages of the source. Peptide text beside a SMILES is read from it.

Assays:
[1] = system: Bordetella bronchitica ATCC4617; assay: Cylinder-plate potency method of the United States pharmacopoeia; assay type: cell-based
Text: In addition to at least 30 minor polymyxins with very similar physiochemical properties, colistin consists of colistin E1 and colistin E2 (Fig. 1)[6]. According to European Pharmacopoeia records, the components with the same molecular weight as colistin E1 are colistin E1-7MOA and E1-I, and colistin E2 is colistin E3, E2-I, and E1-Nva. In short, except for the principal components colistin E1 and E2, other components with similar physicochemical properties account for nearly 20% of colistin. These components could not be separated from colistin E1/E2 using mobile phases containing formic acid but were identified as a single peak of polymyxin E1/E2 by HPLC. This neglected problem actually brings some interferes with single component or colistin quantification. In the process of developing CMS, we successfully purified single components of colistin E1 and E2 with a purity of more than 99% by preparative HPLC using a specific salt mobile phase.

[2] = for long-term storage stability: colistin E2-spiked samples, at least 93 days
Experimental: (§1) Referring to Zhou et al.[10], for each plasma sample, 100 µL of 5% ammonia was added to a mixture containing 100 µL of CMS E2 calibration plasma standards or QCs and 20 µL of 15 µg/ml IS solution. After vortexing, the mixtures were loaded onto WCX SPE plates. Before loading the sample, the WCX SPE plates were preconditioned with 1 ml methanol followed by 1 mL water to activate the extraction. The plate was sequentially washed with 1 mL of water, 1 mL of methanol, 1 mL of 70% ACN with 2% ammonia, and 1 ml 0.5% FA. Subsequently, 300 µL of 70% ACN with 6% FA was used to elute the analytes twice. Total eluents (600 µL) were collected with an SPE 96-Deep Square Well collection plate, mixed in a 96-well plate mixer, and analyzed by UHPLC-MS/MS.
(§2) The stability of colistin E2 was evaluated at two levels (low and high QCs).
(§3) The hydrolysis of CMS E2 is temperature dependent; the lower the temperature, the slower the hydrolysis rate. The samples were processed in ice water. Therefore, we studied their stability in ice-water. In the presence of CMS E2 (the spiked concentration was 50 times the concentration of colistin, which can cover the clinical samples), the stability of colistin E2 was also evaluated under the following conditions: on the bench top in ice water for 21 h, four freeze–thaw cycles, storage at − 20 ℃ and − 80 ℃ (at least 98 days), and storage of extracts at 4 ℃ in an auto-sampler for 22.5 h.
The method was used for the stability study, and all the following medicinal solutions and plasma samples were prepared and used in an ice water bath and stored at -20 °C after use.
2.6.4 Preparation of plasma quality control sample QC_mix for CMS E2/Colistin E2

[3] = Experimental: as §2
The hydrolysis of CMS E2 is temperature dependent; the lower the temperature, the slower the hydrolysis rate. The samples were processed in ice water. Therefore, we studied their stability in ice-water. In the presence of CMS E2 (the spiked concentration was 50 times the concentration of colistin, which can cover the clinical samples), the stability of colistin E2 was also evaluated under the following conditions: […], four freeze–thaw cycles, storage at − 20 ℃ and − 80 ℃ (at least 98 days), and storage of extracts at 4 ℃ in an auto-sampler for 22.5 h.

[4] = stock solution in methanol: water (1: 1)
Experimental: as §2
The standard curve stock solution and the quality control stock solution for colistin E2 need to be prepared from different weighing. All solutions were kept at -20°C.
The colistin E2 reference was accurately weighed and dissolved with an appropriate amount of methanol: water (1: 1) to prepare a stock solution SS-A with a concentration of 3 mg/mL.

[5] = remark: listed apart in the source
Experimental: as §1, §2, §3

Compound	potency ([1]; cylinder-plate method, United States pharmacopoeia, test bacteria Bordetella bronchitica ATCC4617) [µg/mg]	antibacterial activity (comparison of purified single components) ([1]; single components purified to more than 99% by preparative HPLC)	benchtop stability ([2]; colistin E2-spiked plasma, low and high QCs, without CMS E2, bench top in ice water for 24 h)	freeze–thaw stability ([2]; colistin E2-spiked plasma, low and high QCs, without CMS E2, four freeze–thaw cycles)	long-term storage stability ([2]; low and high QCs, −20 ℃)	long-term storage stability ([2]; low and high QCs, −80 ℃)	%Change, benchtop stability ([2]; human plasma (EDTA-K2) spiked with CMS E2 (50 times colistin concentration; QC_mix 24/0.48 µg/mL), 21 h in ice water, UHPLC-MS/MS) [%]	%Change, long-term stability ([2]; human plasma spiked with CMS E2, 41 d in freezer (−20℃), UHPLC-MS/MS) [%]	percentage of change in blood spiked with CMS E2 ([3]; blood spiked with CMS E2, ice water for 60 min)	stability in fresh whole blood ([3]; fresh whole blood (EDTA-K2), bench top in ice water for 66 min, without CMS E2)	stability of stock solutions ([4]; stored at ambient for 21 h)	stability of stock solutions, long-term ([4]; −20 ℃ for at least 97 days)	duration of stability in the auto-sampler ([5]; extracts after WCX SPE removal of CMS E2, auto-sampler (4℃))	stability of extracts ([5]; extracts at 4 ℃ in an auto-sampler for 65.5 h, without CMS E2)	%Change, processed sample stability ([5]; sample extracts of matrix spiked with CMS E2, 22.5 h in an auto-sampler (4℃), UHPLC-MS/MS) [%]
colistin E2 methanesulphonate [CMS E2]	611	–	–	–	–	–	–	–	–	–	–	–	–	–	–
CC(C)CCCCC(=O)N[C@@H](CCN)C(=O)N[C@H](C(=O)N[C@@H](CCN)C(=O)N[C@H]1CCNC(=O)[C@H]([C@@H](C)O)NC(=O)[C@H](CCN)NC(=O)[C@H](CCN)NC(=O)[C@H](CC(C)C)NC(=O)[C@@H](CC(C)C)NC(=O)[C@H](CCN)NC1=O)[C@@H](C)O [colistin E2] (HELM PEPTIDE1{[CC(C)CCCCC(=O)[*:2]].[Dab].T.[Dab].[Dab].[Dab].[dL].L.[Dab].[Dab].T}$PEPTIDE1,PEPTIDE1,5:R3-11:R2$$$V2.0)	–	higher than that of E1	no degradation	no degradation	no degradation	no degradation	2.0	1.3	less than 15%	no degradation	no degradation	no degradation	at least 22.5 h	no degradation	4.4
